Measurements taken from ChEMBL document CHEMBL5137070, “N-2-(Phenylamino) Benzamide Derivatives as Dual Inhibitors of COX-2 and Topo I Deter Gastrointestinal Cancers via Targeting Inflammation and Tumor Progression” (J Med Chem, 2022).
Activity calls are given as the source filed them. The rule behind the calls is not given here.

Columns and labels:
CT26.WT [1] = experiment: Antiproliferative activity against mouse CT26.WT cells assessed as reduction in cell proliferation incubated for 48 hrs by MTT assay; format: functional, cell-based
RKO [2] = experiment: Antiproliferative activity against human RKO cells assessed as reduction in cell proliferation incubated for 48 hrs by MTT assay; format: functional, cell-based
HT-29 = experiment: Antiproliferative activity against human HT-29 cells assessed as reduction in cell proliferation incubated for 48 hrs by MTT assay; format: functional, cell-based; conditions: HT-29, 48 h
HGC-27 [3] = experiment: Antiproliferative activity against human HGC-27 cells assessed as reduction in cell proliferation incubated for 48 hrs by MTT assay; format: functional, cell-based; conditions: HGC-27, 48 h
SGC-7901 = experiment: Antiproliferative activity against human SGC-7901 cells assessed as reduction in cell proliferation incubated for 48 hrs by MTT assay; format: functional, cell-based; conditions: SGC-7901, 48 h
[4] = molecular target: T1, DNA topoisomerase 1 (Homo sapiens) (UniProt P11387); experiment: Inhibition of human topoisomerase I assessed as DNA unwinding using DNA pBR322 as substrate at 2 uM incubated for 30 mins by ethidium bromide staining based agarose gel electrophoresis
T1 sequence (whole entry): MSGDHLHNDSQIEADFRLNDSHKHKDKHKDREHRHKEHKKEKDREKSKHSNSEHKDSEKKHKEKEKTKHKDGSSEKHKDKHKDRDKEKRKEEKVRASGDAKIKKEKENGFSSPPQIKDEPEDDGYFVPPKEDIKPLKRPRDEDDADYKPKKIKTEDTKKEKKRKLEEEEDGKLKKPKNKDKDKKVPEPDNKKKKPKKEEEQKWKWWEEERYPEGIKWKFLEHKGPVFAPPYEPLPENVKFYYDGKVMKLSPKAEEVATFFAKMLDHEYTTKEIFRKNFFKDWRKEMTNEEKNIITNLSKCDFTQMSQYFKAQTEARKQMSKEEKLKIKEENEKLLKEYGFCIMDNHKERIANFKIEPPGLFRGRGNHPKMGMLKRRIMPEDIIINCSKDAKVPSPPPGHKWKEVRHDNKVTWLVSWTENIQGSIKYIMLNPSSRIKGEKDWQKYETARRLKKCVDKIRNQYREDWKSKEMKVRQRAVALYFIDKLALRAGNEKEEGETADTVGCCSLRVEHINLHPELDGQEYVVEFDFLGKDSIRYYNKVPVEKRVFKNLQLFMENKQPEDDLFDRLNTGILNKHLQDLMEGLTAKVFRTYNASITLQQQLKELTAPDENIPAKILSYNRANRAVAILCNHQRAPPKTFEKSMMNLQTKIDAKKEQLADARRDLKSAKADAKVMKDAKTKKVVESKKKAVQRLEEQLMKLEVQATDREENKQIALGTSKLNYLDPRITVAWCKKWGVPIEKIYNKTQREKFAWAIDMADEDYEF

HGC-27 [5] = experiment: Effect on cell morphology in human HGC-27 cells assessed as appearance of smaller cells at 10 uM incubated for 48 hrs by giemsa staining based microscopic analysis; format: functional
DNA topoisomerase 1 = molecular target: T2, DNA topoisomerase 1 (Homo sapiens, UniProt P11387); experiment: Inhibition of human topoisomerase I assessed as DNA relaxation using DNA pBR322 as substrate incubated for 30 mins by ethidium bromide staining based agarose gel electrophoresis
T2 sequence (P11387 whole entry): T1 sequence (whole entry)

HGC-27 [6] = experiment: Antiproliferative activity against human HGC-27 cells assessed as clone formation at 0.37 to 3.3 uM incubated for 4 days by crystal violet staining based analysis; format: functional, cell-based; conditions: dose 0.37-3.3 µM, time 4.0 day
RKO [7] = experiment: Antiproliferative activity against human RKO cells assessed as clone formation at 0.04 to 3.3 uM incubated for 4 days by crystal violet staining based analysis; format: functional, cell-based; conditions: dose 0.04-3.3 µM, time 4.0 day
HGC-27 [8] = experiment: Effect on cell morphology in human HGC-27 cells assessed as appearance of round cells at 10 uM incubated for 48 hrs by giemsa staining based microscopic analysis; format: functional
HGC-27 [9] = experiment: Effect on cell morphology in human HGC-27 cells assessed as lose of adherence at 10 uM incubated for 48 hrs by giemsa staining based microscopic analysis; format: functional
HGC-27 [10] = experiment: Effect on cell morphology in human HGC-27 cells assessed as condensed morphology at 10 uM incubated for 48 hrs by giemsa staining based microscopic analysis; format: functional
HGC-27 [11] = experiment: Effect on cell morphology in human HGC-27 cells assessed as contracted nucleus at 10 uM incubated for 48 hrs by giemsa staining based microscopic analysis; format: functional
RKO [12] = experiment: Effect on cell morphology in human RKO cells assessed as appearance of smaller cells at 10 uM incubated for 48 hrs by giemsa staining based microscopic analysis; format: functional
RKO [13] = experiment: Effect on cell morphology in human RKO cells assessed as appearance of round cells at 10 uM incubated for 48 hrs by giemsa staining based microscopic analysis; format: functional
RKO [14] = experiment: Effect on cell morphology in human RKO cells assessed as lose of adherence at 10 uM incubated for 48 hrs by giemsa staining based microscopic analysis; format: functional
RKO [15] = experiment: Effect on cell morphology in human RKO cells assessed as condensed morphology at 10 uM incubated for 48 hrs by giemsa staining based microscopic analysis; format: functional
RKO [16] = experiment: Effect on cell morphology in human RKO cells assessed as contracted nucleus at 10 uM incubated for 48 hrs by giemsa staining based microscopic analysis; format: functional
RKO [17] = experiment: Induction of mitochondrial membrane loss in human RKO at 1.1 to 10 uM and measured after 36 hrs by TMRE dye based flow cytometry; format: functional, cell-based; conditions: dose 1.1-10 µM, DDE = dose-dependent effect
HGC-27 [18] = experiment: Induction of mitochondrial membrane loss in human HGC-27 at 1.1 to 10 uM and measured after 36 hrs by TMRE dye based flow cytometry; format: functional, cell-based; conditions: dose 1.1-10 µM, DDE = dose-dependent effect
RKO [19] = experiment: Induction of cell cycle arrest in human RKO cells assessed as accumulation at G2/M phase at 3.3 to 10 uM for 24 hrs by propidium iodide staining based flow cytometry; format: functional; conditions: dose 3.3-10 µM
HGC-27 [20] = experiment: Induction of cell cycle arrest in human HGC-27 cells assessed as accumulation at G2/M phase at 3.3 to 10 uM for 24 hrs by propidium iodide staining based flow cytometry; format: functional; conditions: dose 3.3-10 µM
RKO [21] = experiment: Antiproliferative activity against human RKO cells assessed as cell viability at <= 0.41 uM for 48 hrs by MTT assay; format: functional; conditions: up to 0.41 µM
HGC-27 [22] = experiment: Antiproliferative activity against human HGC-27 cells assessed as cell viability at <= 0.41 uM for 48 hrs by MTT assay; format: functional; conditions: up to 0.41 µM
CT26.WT [23] = experiment: Antiproliferative activity against mouse CT26.WT cells assessed as cell viability at 1.11 uM for 48 hrs by MTT assay; format: functional; conditions: read-out: Activity
RKO [24] = experiment: Anti-migration activity against human RKO cells assessed as decrease in cell migration rate at 0.37 uM for 48 hrs by crystalline violet staining based assay; format: functional
HGC-27 [25] = experiment: Anti-migration activity against human HGC-27 cells assessed as decrease in cell migration rate at 0.37 uM for 48 hrs by crystalline violet staining based assay; format: functional
RKO [26] = experiment: Anti-migration activity against human RKO cells assessed as inhibition of cell migration at 0.37 uM and measured after 24 hrs by wound healing assay; format: functional, cell-based
RAW264.7 [27] = experiment: Cytotoxicity against mouse RAW264.7 cells assessed as reduction in cell viability at <=11.11 for 24 hrs by MTT assay; format: toxicity, cell-based; conditions: raw264.7, 24 h
RAW264.7 [28] = experiment: Antiinflammatory activity against LPS-stimulated mouse RAW264.7 cells assessed decrease in IL-1beta release at 6.6 uM incubated for 1 hrs followed by LPS stimulation and measured after 24 hrs by ELISA relative to control; format: functional, cell-based; conditions: time 25.0 hrs
RAW264.7 [29] = experiment: Inhibition of LPS induced NO production in mouse RAW264.7 cells at 6.6 uM incubated for 1 hrs followed by LPS stimulation and measured after 24 hrs by Griess reagent based assay; format: functional, cell-based; conditions: time 25.0 hrs
RAW264.7 [30] = experiment: Antiinflammatory activity in mouse RAW264.7 cells assessed as reduction in LPS-induced COX-2 expression at 6.6 uM incubated for 1 hrs followed by LPS stimulation and measured after 24 hrs by western blot analysis; format: functional, cell-based; conditions: time 25.0 hrs
RKO [31] = experiment: Induction of apoptosis in human RKO cells at 1.1 to 10 uM for 24 hrs by Annexin V-FITC/PI staining based flow cytometry; format: functional, cell-based; conditions: dose 1.1-10 µM
HGC-27 [32] = experiment: Induction of apoptosis in human HGC-27 cells at 1.1 to 10 uM for 24 hrs by Annexin V-FITC/PI staining based flow cytometry; format: functional, cell-based; conditions: dose 1.1-10 µM

With `Cc1c(Cl)cccc1Nc1ccc(F)cc1C(=O)NCc1ccc(O)c(F)c1` as the compound, how does the IC50 (CT26.WT [1]) read?
Its IC50 is 8.88 µM.

And the IC50 (RKO [2])?
Its IC50 is 6.74 µM.

What about the IC50 (HT-29) of the same compound?
The IC50 was 15.8 µM.

And the IC50 (HGC-27 [3])?
Its IC50 is 7.23 µM.

And the IC50 (SGC-7901)?
The IC50 was 14.3 µM.

What about the inhibition [4] of the same compound?
Its inhibition is 41.1%.

And the Activity (HGC-27 [5])?
The Activity was “Active”.

What about the IC50 (DNA topoisomerase 1) of the same compound?
Its IC50 is 4.79 µM.

And the Activity (HGC-27 [6])?
Its Activity is “Active”.

What about the Activity (RKO [7]) of the same compound?
Its Activity is “Active”.

What about the Activity (HGC-27 [8]) of the same compound?
The Activity was “Active”.

What about the Activity (HGC-27 [9]) of the same compound?
The Activity was “Active”.

What about the Activity (HGC-27 [10]) of the same compound?
The Activity was “Active”.

What about the Activity (HGC-27 [11]) of the same compound?
Its Activity is “Active”.

What about the Activity (RKO [12]) of the same compound?
Its Activity is “Active”.

What about the Activity (RKO [13]) of the same compound?
The Activity was “Active”.

And the Activity (RKO [14])?
Its Activity is “Active”.

And the Activity (RKO [15])?
Its Activity is “Active”.

What about the Activity (RKO [16]) of the same compound?
The Activity was “Active”.

What about the Activity (RKO [17]) of the same compound?
The Activity was “Dde”.

What about the Activity (HGC-27 [18]) of the same compound?
The Activity was “Dde”.

And the Activity (RKO [19])?
The Activity was “Active”.

And the Activity (HGC-27 [20])?
The Activity was “Active”.

What about the Activity (RKO [21]) of the same compound?
Its Activity is >80%.

And the Activity (HGC-27 [22])?
Its Activity is >80%.

And the viability at 1.11 µM (CT26.WT [23])?
The viability at 1.11 µM was > 80%.

What about the Activity (RKO [24]) of the same compound?
Its Activity is “Active”.

And the Activity (HGC-27 [25])?
Its Activity is “Active”.

And the Activity (RKO [26])?
Its Activity is “Active”.

And the Activity (RAW264.7 [27])?
The Activity was > 80%.

And the Activity (RAW264.7 [28])?
The Activity was “Active”.

What about the inhibition (RAW264.7 [29]) of the same compound?
Its inhibition is “Active”.

And the Activity (RAW264.7 [30])?
Its Activity is “Active”.

And the Activity (RKO [31])?
The Activity was “Active”.

What about the Activity (HGC-27 [32]) of the same compound?
The Activity was “Active”.
